Measurements reported in ChEMBL document CHEMBL1150289, “Petiolins A-C, phloroglucinol derivatives from Hypericum pseudopetiolatum var. kiusianum” (Bioorg Med Chem, 2008).
≈ marks a conversion by molar mass, not a printed value.

Assays:
L1210 = test: Cytotoxicity against mouse L1210 cells; type: functional, cell-based
KB = test: Cytotoxicity against human KB cells; type: functional, cell-based
[1] = system: Trichophyton mentagrophytes; test: Antifungal activity against Trichophyton mentagrophytes; type: functional

Q: With `CC(C)=CCCC1(C)C=CC2=C(O1)C(C)(C)C(=O)C(C(=O)C(C)C)=C2O` (configuration not stated) [PETIOLIN A] as the molecule, how does the IC50 (L1210) read?
A: The IC50 was 2.5 µg/mL (≈ 6.97 µM).

Q: And the IC50 (KB)?
A: Its IC50 is 4.8 µg/mL (≈ 13.4 µM).

Q: For `CCC(C)C(=O)C1=C(O)C2=C(OC(C)(CCC=C(C)C)C=C2)C(C)(C)C1=O` (configuration not stated) [PETIOLIN B], which IC50 (L1210) is on record?
A: The IC50 was over 10 µg/mL.

Q: What about the IC50 (KB) of the same molecule?
A: Its IC50 is 9.6 µg/mL (≈ 25.8 µM).

Q: For `CC(C)=CCC[C@@](C)(O)[C@@H]1CC2=C(O1)/C(=C(/O)C(C)C)C(=O)C(C)(C)C2=O` [PETIOLIN C], which IC50 (L1210) is on record?
A: The IC50 was 3.3 µg/mL (≈ 8.77 µM).

Q: What about the MIC [1] of the same molecule?
A: The MIC was 33.3 µg/mL (≈ 88.4 µM).

Q: What about the IC50 (KB) of the same molecule?
A: Its IC50 is 4.9 µg/mL (≈ 13 µM).
